Source: ChEMBL document CHEMBL1201862, “PubChem BioAssay data set” (2004)
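Tested at 5 concentrations; 48 h exposure; 96-well plates; endpoints linearly interpolated, else capped at highest concentration. The concentration for 50% growth inhibition is given as GI50.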 Calls of active or inactive are those of the source. Cut-off read from the data, not from the text of the source: active = GI50 up to about 1.1 µM and inactive = higher.

Tests used:
Test in all cases: NCI-60 cell line screen, 48 h
DMS-273 = test system: DMS-273
A498 = test system: A498
OVCAR-8 = test system: OVCAR-8
SF-295 = test system: SF-295
HOP-92 = test system: HOP-92
SW-620 = test system: SW-620
SF-539 = test system: SF-539
SK-MEL-28 = test system: SK-MEL-28
CCRF-CEM = test system: CCRF-CEM
OVCAR-4 = test system: OVCAR-4
IGROV-1 = test system: IGROV-1
SNB-75 = test system: SNB-75
UACC-62 = test system: UACC-62
KM12 = test system: KM12
OVCAR-5 = test system: OVCAR-5

Measured: GI50

C/C(=N\N=C(\N)S)c1ccc(Oc2ccccc2)cc1
inactive: DMS-273 5.96 µM | A498 13.7 µM | OVCAR-8 11.7 µM | SF-295 8.07 µM | HOP-92 3.65 µM | SW-620 16.3 µM | SF-539 5.38 µM | SK-MEL-28 11.7 µM | CCRF-CEM 5.04 µM | OVCAR-4 3.7 µM | IGROV-1 2.59 µM | SNB-75 7.38 µM | UACC-62 10.6 µM

O=c1ncc(F)cn1C1OC(CO)C(O)C1O (stereo not given)
inactive: DMS-273 16.7 µM | A498 > 44.2 µM | OVCAR-8 > 27.7 µM | SF-295 > 29.7 µM | HOP-92 23.8 µM | KM12 > 30.5 µM | SW-620 > 31.4 µM | SF-539 > 34.9 µM | SK-MEL-28 > 45.6 µM | CCRF-CEM 14.7 µM | OVCAR-5 > 52 µM | OVCAR-4 > 80.5 µM | IGROV-1 > 30.8 µM | SNB-75 6.24 µM | UACC-62 > 37.6 µM

CC(N)C(=O)c1ccc(O)cc1 (stereo not given)
inactive: DMS-273 > 100 µM | A498 > 100 µM | OVCAR-8 > 100 µM | SF-295 > 100 µM | HOP-92 > 100 µM | KM12 > 100 µM | SW-620 > 100 µM | SF-539 > 100 µM | SK-MEL-28 > 100 µM | CCRF-CEM > 100 µM | OVCAR-5 > 100 µM | OVCAR-4 > 100 µM | IGROV-1 > 100 µM | SNB-75 > 100 µM | UACC-62 > 100 µM

CC1CN1P1(N2CC2C)=NP(N2CC2C)(N2CC2C)=NP(N2CC2C)(N2CC2C)=N1 (stereo not given)
inactive: DMS-273 > 50 µM | A498 > 50 µM | OVCAR-8 > 50 µM | SF-295 > 50 µM | HOP-92 > 50 µM | SW-620 > 50 µM | SF-539 > 50 µM | SK-MEL-28 > 50 µM | CCRF-CEM > 50 µM | OVCAR-4 > 50 µM | IGROV-1 > 50 µM | SNB-75 > 50 µM

C[C@]12CC[C@H](O)CC1=CC[C@@H]1C2CC[C@]2(C)C(=O)N(N)C(=O)CC12 (stereo not given in full)
inactive: DMS-273 > 100 µM | A498 > 100 µM | OVCAR-8 > 100 µM | SF-295 > 100 µM | HOP-92 > 100 µM | KM12 > 100 µM | SW-620 > 100 µM | SF-539 > 100 µM | SK-MEL-28 > 100 µM | CCRF-CEM > 100 µM | OVCAR-5 > 100 µM | OVCAR-4 > 100 µM | IGROV-1 > 100 µM | SNB-75 5.38 µM | UACC-62 > 100 µM

CN1CCN(C)C12C=CC=CC21CC1
inactive: DMS-273 > 100 µM | A498 > 100 µM | OVCAR-8 > 100 µM | SF-295 > 100 µM | HOP-92 58.9 µM | KM12 > 100 µM | SW-620 > 100 µM | SF-539 > 100 µM | CCRF-CEM > 100 µM | OVCAR-5 > 100 µM | OVCAR-4 > 100 µM | IGROV-1 > 100 µM | SNB-75 > 100 µM | UACC-62 > 100 µM

N/C(=C\c1ccc(OCc2ccccc2)c(OCc2ccccc2)c1[N+](=O)[O-])C(=O)O
inactive: DMS-273 > 100 µM | A498 > 100 µM | OVCAR-8 > 100 µM | SF-295 > 100 µM | HOP-92 > 100 µM | KM12 > 100 µM | SW-620 > 100 µM | SF-539 > 100 µM | SK-MEL-28 > 100 µM | CCRF-CEM > 100 µM | OVCAR-5 > 100 µM | IGROV-1 > 100 µM | SNB-75 > 100 µM | UACC-62 > 100 µM

COc1cc2c3c(c1OCc1ccccc1)NCCC3NCC2 (stereo not given)
inactive: DMS-273 > 100 µM | A498 > 100 µM | OVCAR-8 > 100 µM | SF-295 > 100 µM | HOP-92 86.1 µM | KM12 > 100 µM | SW-620 > 100 µM | SF-539 > 100 µM | CCRF-CEM > 100 µM | OVCAR-5 > 100 µM | OVCAR-4 > 100 µM | IGROV-1 > 100 µM | SNB-75 43.7 µM | UACC-62 > 100 µM

CCN(CC)c1ccc(C2N3CCCCC3[C@@H]3c4[nH]c5ccccc5c4CCN23)cc1 (stereo not given in full)
inactive: DMS-273 32.9 µM | A498 14.5 µM | OVCAR-8 35.3 µM | SF-295 53.7 µM | HOP-92 38.1 µM | SW-620 33.5 µM | SF-539 18.3 µM | SK-MEL-28 25.9 µM | CCRF-CEM 16.3 µM | OVCAR-5 51.3 µM | OVCAR-4 36.5 µM | IGROV-1 42.8 µM | SNB-75 6.11 µM | UACC-62 19.5 µM

CCCCN(CCCC)CC(C(=O)Nc1ccc([N+](=O)[O-])cc1[N+](=O)[O-])/C(C)=N\NC(=S)NN (stereo not given)
inactive: DMS-273 > 100 µM | A498 > 100 µM | OVCAR-8 > 100 µM | SF-295 > 100 µM | HOP-92 42.1 µM | KM12 > 100 µM | SW-620 > 100 µM | SF-539 > 100 µM | SK-MEL-28 > 100 µM | CCRF-CEM 49.4 µM | OVCAR-5 > 100 µM | IGROV-1 > 100 µM | SNB-75 > 100 µM | UACC-62 > 100 µM

CN(C)c1nc(N(C)C)nc(N(C)CN(C)c2nc(N(C)C)nc(N(C)C)n2)n1
inactive: DMS-273 > 100 µM | A498 > 100 µM | OVCAR-8 > 100 µM | SF-295 > 100 µM | HOP-92 > 100 µM | KM12 > 100 µM | SW-620 > 100 µM | SF-539 > 100 µM | SK-MEL-28 > 100 µM | CCRF-CEM > 100 µM | OVCAR-5 > 100 µM | OVCAR-4 > 100 µM | IGROV-1 > 100 µM | SNB-75 > 100 µM | UACC-62 > 100 µM

O[C@]12CCCC[C@H]1CCC2
inactive: DMS-273 > 100 µM | A498 > 100 µM | OVCAR-8 > 100 µM | SF-295 > 100 µM | HOP-92 > 100 µM | KM12 > 100 µM | SW-620 > 100 µM | SF-539 > 100 µM | SK-MEL-28 > 100 µM | CCRF-CEM > 100 µM | OVCAR-5 > 100 µM | OVCAR-4 > 100 µM | IGROV-1 > 100 µM | SNB-75 > 100 µM | UACC-62 > 100 µM

COC(=O)CC(C(C(=O)OC)C(=O)OC)N1C(=O)OC(c2ccccc2)C1c1ccccc1 (stereo not given)
inactive: DMS-273 > 100 µM | A498 > 100 µM | OVCAR-8 > 100 µM | SF-295 > 100 µM | HOP-92 > 100 µM | KM12 > 100 µM | SW-620 26.1 µM | SF-539 > 100 µM | SK-MEL-28 > 100 µM | CCRF-CEM 63.1 µM | OVCAR-5 > 100 µM | OVCAR-4 > 100 µM | IGROV-1 > 100 µM | SNB-75 > 100 µM | UACC-62 > 100 µM

Cc1c2ccncc2c(C)c2c1[nH]c1ccc(Oc3ccccc3)cc12
inactive: DMS-273 1.76 µM | A498 5.62 µM | OVCAR-8 2.03 µM | SF-295 4.63 µM | HOP-92 6.05 µM | KM12 2.6 µM | SW-620 2.67 µM | SF-539 1.88 µM | SK-MEL-28 3.09 µM | CCRF-CEM 2.17 µM | OVCAR-5 1.86 µM | OVCAR-4 2.62 µM | IGROV-1 4.13 µM | SNB-75 2.86 µM | UACC-62 1.74 µM
